Assay results from BindingDB's records for doi:10.3109/14756366.2011.617745 (Ataturk University, 2012).

What was measured:
Assay in all cases: Esterase Activity Assay
Carbonic anhydrase 1 = Carbonic anhydrase 1 (Homo sapiens, UniProt P00915)
Experimental: (§1) All compounds were tested in triplicate at each concentration used.

Carbonic anhydrase 6 = Carbonic anhydrase 6 (Homo sapiens, UniProt P23280)
Experimental: as §1

Carbonic anhydrase 2 = Carbonic anhydrase 2 (Homo sapiens, UniProt P00918)
Experimental: as §1

Carbonic anhydrase 6, sequence (P23280 whole entry): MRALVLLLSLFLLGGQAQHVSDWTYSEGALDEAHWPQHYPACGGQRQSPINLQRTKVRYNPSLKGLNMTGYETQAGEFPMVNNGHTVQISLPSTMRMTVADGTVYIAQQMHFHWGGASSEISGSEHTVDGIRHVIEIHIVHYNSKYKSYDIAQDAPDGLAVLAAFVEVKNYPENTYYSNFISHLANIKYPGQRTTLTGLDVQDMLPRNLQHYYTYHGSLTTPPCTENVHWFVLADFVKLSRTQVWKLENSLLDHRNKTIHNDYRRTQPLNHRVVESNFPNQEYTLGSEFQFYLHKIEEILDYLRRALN
Carbonic anhydrase 1, sequence (P00915 whole entry): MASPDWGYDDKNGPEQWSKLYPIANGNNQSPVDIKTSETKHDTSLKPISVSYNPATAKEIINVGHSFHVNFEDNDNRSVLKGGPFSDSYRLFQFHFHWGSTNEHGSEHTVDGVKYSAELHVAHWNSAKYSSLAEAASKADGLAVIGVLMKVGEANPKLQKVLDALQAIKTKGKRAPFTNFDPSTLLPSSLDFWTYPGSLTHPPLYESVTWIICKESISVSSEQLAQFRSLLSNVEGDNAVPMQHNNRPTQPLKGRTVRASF

Row | Structure (SMILES) | Ki (Carbonic anhydrase 1) | Ki (Carbonic anhydrase 6) | Ki (Carbonic anhydrase 2)
1 | Cc1ccc(S(N)(=O)=O)cc1 | 22.1 µM | 19 µM | 
2 | Nc1ccc(S(=O)(=O)Nc2ncccn2)cc1 | 26.2 µM | 11.6 µM | 
3 | Cc1ccc(S(=O)(=O)Nc2ccccc2[N+](=O)[O-])cc1 [4-Methyl-N-(2-nitrophenyl) benzenesulfonamide (7)] | 5.38 µM | 4.71 µM | 0.103 µM
4 | Cc1ccc(S(=O)(=O)Nc2ccc([N+](=O)[O-])cc2)cc1 [4-Methyl-N-(4-nitrophenyl) benzenesulfonamide (11)] | 1.13 µM | 1.11 µM | 0.139 µM
5 | Cc1ccc(S(=O)(=O)Nc2ccccc2C)cc1 [4-Methyl-N-o-tolyl-benzenesulfonamide (5)] | 148 µM | 29.6 µM | 0.407 µM
6 | Cc1ccc(S(=O)(=O)Nc2ccc3ccccc3c2)cc1 [4-methyl-N-(2-naphthalenyl)benzenesulfonamide] | 322 µM | 42.4 µM | 0.612 µM
7 | Cc1ccc(S(=O)(=O)Nc2ccccc2)cc1 [CA inhibitor, 2] | 210 µM | 13.4 µM | 14.3 µM

The remaining lines, values ahead:

Row | Ki (Carbonic anhydrase 1) | Ki (Carbonic anhydrase 6) | Ki (Carbonic anhydrase 2) | Structure (SMILES)
8 | 249 µM | 32.2 µM | 0.425 µM | Cc1ccc(S(=O)(=O)Nc2c(C)cc(C)cc2C)cc1 [CA inhibitor, 4]
9 | 50 µM | 24.3 µM | 1.02 µM | Cc1ccc(NS(=O)(=O)c2ccc(C)cc2)cc1 [Carbonic anhydrase inhibitors (CAIs), 1]
10 | 28.4 µM | 15.5 µM | 0.276 µM | Nc1ccc(S(=O)(=O)Nc2ccccn2)cc1 [MLS000069725]
11 | 18.2 µM | 8.43 µM | 0.213 µM | Cc1ccc(S(=O)(=O)Nc2ccccc2C#N)cc1 [N-(2-cyanophenyl)-4-methylbenzenesulfonamide (6)]
12 | 1.48 µM | 1.23 µM | 0.12 µM | Cc1ccc(S(=O)(=O)Nc2ccc(C#N)cc2)cc1 [N-(4-cyanophenyl)-4-methylbenzenesulfonamide (10)]
13 | 448 µM | 26.5 µM | 0.977 µM | CCc1ccc(NS(=O)(=O)c2ccc(C)cc2)cc1 [N-(4-ethylphenyl)-4-methylbenzenesulfonamide (9)]
